Assay results from ChEMBL document CHEMBL4251633, “Design, synthesis, biological evaluation and cocrystal structures with tubulin of chiral β-lactam bridged combretastatin A-4 analogues as potent antitumor agents” (Eur J Med Chem, 2018).
The source made the active and inactive calls. No cut-off for these calls is given here.

How the values were obtained:
[1] = Acute toxicity in ICR mouse assessed as survival rate at 125 mg/kg, ip measured on day 14 (reference value: 100%); type: organism-based; conditions: in vivo
HeLa [2] = experiment: Cell cycle arrest in human HeLa cells assessed as accumulation at G2/M-phase at 50 nM after 24 hrs by propidium iodide staining based flow cytometry; type: functional
HeLa [3] = experiment: Upregulation of Cyclin-B1 protein expression in human HeLa cells at 50 to 200 nM by Western blot analysis; type: functional, cell-based
HeLa [4] = experiment: Induction of apoptosis in human HeLa cells assessed as necrotic cells at 50 nM after 48 hrs by Annexin V-FITC/propidium iodide staining based flow cytometry (reference value: 0.9%); type: functional
HeLa [5] = experiment: Inhibition of alpha-tubulin polymerization in human HeLa cells assessed as increase in ratio of supernatant faction to pellet fraction at 500 nM after 6 hrs by Western blot analysis; type: cell-based
[6] = Acute toxicity in ICR mouse assessed as survival rate at 275 mg/kg, ip measured on day 14 (reference value: 100%); type: organism-based; conditions: in vivo
HeLa [7] = experiment: Induction of apoptosis in human HeLa cells assessed as live cells at 50 nM after 48 hrs by Annexin V-FITC/propidium iodide staining based flow cytometry (reference value: 96.5%); type: functional
[8] = Acute toxicity in ICR mouse assessed as survival rate at 150 mg/kg, ip measured on day 14 (reference value: 100%); type: organism-based; conditions: in vivo
Mus musculus [9] = experiment: Acute toxicity in ICR mouse assessed as death at 100 to 125 mg/kg, ip measured after 1 day; type: organism-based; conditions: in vivo, 24 h
Mus musculus [10] = experiment: Acute toxicity in ICR mouse assessed as death at 150 mg/kg, ip measured after 3 days; type: organism-based; conditions: in vivo, 72 h
HeLa [11] = experiment: Induction of apoptosis in human HeLa cells assessed as live cells at 100 nM after 48 hrs by Annexin V-FITC/propidium iodide staining based flow cytometry (reference value: 96.5%); type: functional
Mus musculus [12] = experiment: Acute toxicity in ICR mouse assessed as death at 100 mg/kg, ip measured after 2 days; type: organism-based; conditions: in vivo, 48 h

Question: With COc1ccc([C@H]2[C@H](C)C(=O)N2c2cc(OC)c(OC)c(OC)c2)cc1O as the compound, how does the survival at 14 day [1] read?
Answer: 70%

Question: What about the Activity (HeLa [2]) of the same compound?
Answer: 100%

Question: What about the Activity (HeLa [3]) of the same compound?
Answer: Active

Question: And the Activity (HeLa [4])?
Answer: 5.3%

Question: What about the “tubulin polymerization inhibition (active/inactive)” value (HeLa [5]) of the same compound?
Answer: Active

Question: What about the survival at 14 day [6] of the same compound?
Answer: 10%

Question: What about the Activity (HeLa [7]) of the same compound?
Answer: 42%

Question: And the survival at 14 day [8]?
Answer: 40%

Question: What about the Activity (Mus musculus [9]) of the same compound?
Answer: Non-Toxic

Question: What about the Activity (Mus musculus [10]) of the same compound?
Answer: Non-Toxic

Question: And the Activity (HeLa [11])?
Answer: 27.3%

Question: What about the Activity (Mus musculus [12]) of the same compound?
Answer: Non-Toxic
